In brackets after ≈: the same amount, converted by molar mass. Several values for one entry are separate records, joined by “and”; a condition that tells them apart may be missing. Equal entries are not always repeated. Where two headings read alike, the source gives them in different places.
Columns and labels:
[1] = tested on: HA-MRSA; assay: Susceptibility testing MIC/MBC, broth microdilution (Example 3); assay type: cell-based, Staphylococcus aureus; details: for MIC50 / MIC90 / MBC / MIC: Staphylococcus aureus; for MIC50: read-out: MIC50; for MIC90: read-out: MIC90; for MBC: read-out: MBC; for MIC: read-out: MIC
Experimental: Two hundred clinical HA-MRSA isolates, harboring the SCCmecIV type, were evaluated for susceptibility testing. […] Four strains, including 1 hVISA and 1 VISA, characterized by population analysis profile and Macro Etest were selected for time-kill analysis.
Trypose soy agar (TSA; Difco, Detroit, Mich.) was used for colony counting.
Minimum inhibitory concentrations (MIC) and minimum bactericidal concentrations (MBC) were determined by broth microdilution for all antimicrobials, according to the Clinical and Laboratory Standards Institute (CLSI) guidelines (Clinical and Laboratory Standards Institute. 2006. Methods for Dilution Antimicrobial Susceptibility Tests for Bacteria That Grow Aerobically; Approved Standard. 7th ed. Wayne, Pa.: CLSI). MBC values were determined by plating of aliquots of 5 μL from clear wells onto TSA. All susceptibility testing were performed in duplicate.

[2] = tested on: Streptococcus pyogenes; assay: MIC, broth microdilution (Example 1); assay type: cell-based
Experimental: (§1) Stock solutions of all antibacterial agents were prepared at 80-fold (80×) the final target concentration in the appropriate solvent and the solution was allowed to stand for 60 minutes. All antibacterial agents were in solution under these conditions. The final drug concentrations in the FIC assay plates were set to bracket the MIC value of each agent for each test organism, unless the strain was totally resistant to the test agent.
(§2) The test organisms were originally received from clinical sources, or from the American Type Culture Collection. Upon receipt, the isolates were streaked onto the appropriate growth medium: Chocolate Agar for H. influenzae, Tryptic Soy Agar II (Becton Dickinson, Sparks, Md.) supplemented with 5% defibrinated sheep blood for streptococci, and unsupplemented Tryptic Soy Agar II for all other organisms. Colonies were harvested from these plates and a cell suspension was prepared in Tryptic Soy Broth (Becton Dickinson) containing cryoprotectant. Aliquots were then frozen at −80° C. On the day prior to assay, the frozen seeds of the organisms to be tested in that session were thawed and streaked for isolation onto the appropriate agar medium plates and incubated overnight at 35° C.
(§3) The test medium for H. influenzae was Haemophilus Test Medium. Streptococci were tested in Mueller Hinton II Broth (Becton Dickinson; Lot 6235472) supplemented with 2% lysed horse blood (Cleveland Scientific, Bath, Ohio; Lot H88621). All other organisms were tested in Mueller Hinton II Broth (Becton Dickinson, Lot 6235472). The broth was prepared at 1.05× normal weight/volume to offset the 5% volume of the drugs in the final test plates.
(§4) In order to select the proper test concentrations for each drug combination, minimal inhibitory concentration (MIC) values were first determined using the broth microdilution method previously described (Clinical and Laboratory Standards Institute. Methods for Dilution Antimicrobial Susceptibility Tests for Bacteria That Grow Aerobically; Approved Standard—Seventh Edition. Clinical and Laboratory Standards Institute document M7-A7 [ISBN 1-56238-587-9]. Clinical and Laboratory Standards Institute, 940 West Valley Road, Suite 1400, Wayne, Pa. 19087-1898 USA, 2006).
(§5) The wells of standard 96-well microdilution plates (Falcon 3918) were filled with 150 μL of 100% DMSO using the Multidrop 384. These plates were used to prepare the drug “mother plates” which provided the serial drug dilutions for the drug combination plates. The Biomek 2000 was used to transfer 150 μl of each stock solution (80×) from the wells in Column 1 of a deep well plate to the corresponding wells in Column 1 of the mother plate and to make seven 2-fold serial dilutions. Two mother plates, one for each drug, were combined to form a “checkerboard” pattern by transfer of equal volumes (using a multi-channel pipette) to the drug combination plate. Row H and Column 8 each contained serial dilutions of one of the agents alone for determination of the MIC.
(§6) Plates were stacked 3 high, covered with a lid on the top plate, placed in plastic bags, and incubated at 35° C. for approximately 20 hours. Following incubation, the microplates were removed from the incubator and viewed from the bottom using a ScienceWare plate viewer. Prepared reading sheets were marked for the MIC of drug 1 (row H), the MIC of drug 2 (column 8) and the wells of the growth-no growth interface.

[3] = tested on: Staphylococcus aureus; assay: MIC, broth microdilution (Example 1); assay type: cell-based
Experimental: as §1, §2, §3, §4, §5, §6

[4] = tested on: Enterococcus faecalis; assay: MIC, broth microdilution (Example 1); assay type: cell-based
Experimental: as §1, §2, §3, §4, §5, §6

[5] = tested on: Streptococcus pneumoniae; assay: MIC, broth microdilution (Example 1); assay type: cell-based
Experimental: as §1, §2, §3, §4, §5, §6

[6] = tested on: Haemophilus influenzae; assay: MIC, broth microdilution (Example 1); assay type: cell-based; details: Haemophilus influenzae, read-out: MIC
Experimental: as §1, §2, §3, §4, §5, §6

[7] = tested on: ESBL-producing E. coli; assay: Susceptibility testing MIC/MBC, broth microdilution (Example 2); assay type: cell-based, Escherichia coli; details: for MBC / MIC: Escherichia coli; for MBC: read-out: MBC; for MIC: read-out: MIC
[8] = Streptococcus pyogenes, S. pyogenes 0717, read-out: MIC
[9] = Streptococcus pyogenes, S. pyogenes 0722, read-out: MIC
[10] = Staphylococcus aureus, MRSA, S. aureus 0765 (MRSA), read-out: MIC
[11] = Staphylococcus aureus, MRSA, S. aureus 2053 (MRSA), read-out: MIC
[12] = Staphylococcus aureus, MSSA, S. aureus 0753 (MSSA), read-out: MIC
[13] = Staphylococcus aureus, MSSA, S. aureus 2063 (MSSA), read-out: MIC
[14] = Enterococcus faecalis, E. faecalis 0795 (VSE), read-out: MIC
[15] = Enterococcus faecalis, E. faecalis 0796 (VSE), read-out: MIC
[16] = Staphylococcus aureus, ATCC29213, S. aureus 0100 (ATCC 29213), FIC control, read-out: MIC
[17] = Enterococcus faecalis, ATCC29212, E. faecalis 0101 (ATCC 29212), FIC control, read-out: MIC
[18] = MRSA / VISA, HA-MRSA isolate R2303 (VISA)
[19] = MRSA, HA-MRSA isolate R3875 (hVISA)

CC(=O)NC[C@H]1CN(c2ccc(N3CCOCC3)c(F)c2)C(=O)O1 [Linezolid]
% of Isolates with MBC […] μg/mL ([1]; 200 HA-MRSA isolates): 1.5% | % of Isolates with MBC […] μg/mL ([1]; 200 HA-MRSA isolates): 12% | % of Isolates with MBC […] μg/mL ([1]; 200 HA-MRSA isolates): 13.5% | % of Isolates with MBC ≧4 μg/mL ([1]; 200 HA-MRSA isolates): 73% | % of Isolates with MIC 0.25 μg/mL ([1]; 200 HA-MRSA isolates): 9.5% | % of Isolates with MIC […] μg/mL ([1]; 200 HA-MRSA isolates): 16% | % of Isolates with MIC […] μg/mL ([1]; 200 HA-MRSA isolates): 15.5% | % of Isolates with MIC […] μg/mL ([1]; 200 HA-MRSA isolates): 47.5% | % of Isolates with MIC ≧4 μg/mL ([1]; 200 HA-MRSA isolates): 11.5% | MBC range ([1]; 200 HA-MRSA isolates): 0.5 to 64 µg/mL | MIC range ([1]; 200 HA-MRSA isolates): 0.25 to 4 µg/mL | MIC50 ([1]; MRSA, 200 HA-MRSA isolates): 2 µg/mL (≈ 5.93 µM) | MIC90 ([1]; 200 HA-MRSA isolates): 4 µg/mL (≈ 11.9 µM) | MIC [2, 8]: 1 µg/mL | MIC [2, 9]: 1 µg/mL | MIC [3, 10]: 4 µg/mL | MIC [3, 11]: 2 µg/mL | MIC [3, 12]: 4 µg/mL | MIC [3, 13]: 4 µg/mL | MIC [4, 14]: 2 µg/mL | MIC [4, 15]: 4 µg/mL | MIC ([4]; Enterococcus faecalis, VRE, E. faecalis 0847 (VRE), read-out: MIC): 2 µg/mL | MIC ([4]; Enterococcus faecalis, VRE, E. faecalis 0849 (VRE), read-out: MIC): 2 µg/mL

O=C(N[C@H](CO)[C@H](O)c1ccc([N+](=O)[O-])cc1)C(Cl)Cl [Chloramphenicol]
MIC [3, 16]: 16 µg/mL | MIC [4, 17]: 8 µg/mL

CC[C@H]1OC(=O)[C@H](C)[C@@H](O[C@H]2C[C@@](C)(OC)[C@@H](O)[C@H](C)O2)[C@H](C)[C@@H](O[C@@H]2O[C@H](C)C[C@H](N(C)C)[C@H]2O)[C@](C)(O)C[C@@H](C)CN(C)[C@H](C)[C@@H](O)[C@]1(C)O [Azithromycin]
MIC ([5]; S. pneumoniae 0877 (PRSP)): >32^a^ μg/mL | MIC ([5]; Streptococcus pneumoniae, PRSP, S. pneumoniae 0876 (PRSP), read-out: MIC): 2 µg/mL | MIC ([5]; Streptococcus pneumoniae, PRSP, S. pneumoniae 0877 (PRSP), read-out: MIC): > 32 µg/mL | MIC ([5]; Streptococcus pneumoniae, S. pneumoniae 0866 (PSSP), read-out: MIC): 0.06 µg/mL | MIC ([5]; Streptococcus pneumoniae, S. pneumoniae 0869 (PSSP), read-out: MIC): 0.06 µg/mL | MIC ([6]; H. influenzae 1224): 1 µg/mL | MIC ([6]; H. influenzae 2797 (BLNAR)): 1 µg/mL | MIC ([6]; H. influenzae 2798 (BLNAR)): 2 µg/mL | MIC ([6]; H. influenzae 2799 (BLNAR)): 0.25 µg/mL

CO/N=C(\C(=O)N[C@@H]1C(=O)N2C(C(=O)[O-])=C(C[N+]3(C)CCCC3)CS[C@H]12)c1csc(N)n1 [Cefepime]
MBC range ([7]; E. coli (10) clinical isolates): 0.25 to 512 µg/mL | MIC range ([7]; E. coli (10) clinical isolates): 0.125 to 256 µg/mL | MBC ([7]; E. coli isolate no. 5401): 4 µg/mL (≈ 8.32 µM) | MIC ([7]; E. coli isolate no. 5401): 4 µg/mL (≈ 8.32 µM) | MBC ([7]; E. coli isolate no. 5411): 4 µg/mL (≈ 8.32 µM) | MIC ([7]; E. coli isolate no. 5411): 2 µg/mL (≈ 4.16 µM)

CC1(C)S[C@@H]2[C@H](NC(=O)[C@H](N)c3ccc(O)cc3)C(=O)N2[C@H]1C(=O)O [Amoxicillin]
MIC [3, 16]: 4 µg/mL

CCCCCCCCCC(=O)N[C@@H](Cc1c[nH]c2ccccc12)C(=O)N[C@H](CC(N)=O)C(=O)N[C@@H](CC(=O)O)C(=O)N[C@@H]1C(=O)NCC(=O)N[C@@H](CCCN)C(=O)N[C@@H](CC(=O)O)C(=O)N[C@H](C)C(=O)N[C@@H](CC(=O)O)C(=O)NCC(=O)N[C@H](CO)C(=O)N[C@@H]([C@H](C)CC(=O)O)C(=O)N[C@@H](CC(=O)c2ccccc2N)C(=O)O[C@@H]1C [Daptomycin]
% of Isolates with MBC 0.25 μg/mL ([1]; 200 HA-MRSA isolates): 47.5% | % of Isolates with MBC […] μg/mL ([1]; 200 HA-MRSA isolates): 35% | % of Isolates with MBC […] μg/mL ([1]; 200 HA-MRSA isolates): 5% | % of Isolates with MBC […] μg/mL ([1]; 200 HA-MRSA isolates): 2.5% | % of Isolates with MBC […] ([1]; 200 HA-MRSA isolates): 9.5% | % of Isolates with MBC ≧4 μg/mL ([1]; 200 HA-MRSA isolates): 0.5% | % of Isolates with MIC 0.25 μg/mL ([1]; 200 HA-MRSA isolates): 58.5% | % of Isolates with MIC […] μg/mL ([1]; 200 HA-MRSA isolates): 20.5% | % of Isolates with MIC […] μg/mL ([1]; 200 HA-MRSA isolates): 1% | % of Isolates with MIC […] ([1]; 200 HA-MRSA isolates): 19.5% | % of Isolates with MIC ≧4 μg/mL ([1]; 200 HA-MRSA isolates): 0.5% | MBC range ([1]; 200 HA-MRSA isolates): 0.125 to 4 µg/mL | MIC range ([1]; 200 HA-MRSA isolates): 0.125 to 4 µg/mL | MIC50 ([1]; MRSA, 200 HA-MRSA isolates): 0.25 µg/mL (≈ 0.154 µM) | MIC90 ([1]; 200 HA-MRSA isolates): 0.5 µg/mL (≈ 0.309 µM) | MIC ([2]; S. pyogenes 0717): 0.06 µg/mL | MIC [2, 8]: 0.05 µg/mL | MIC [2, 9]: 0.06 µg/mL | MIC [3, 10]: 0.5 µg/mL | MIC [3, 11]: 0.5 µg/mL | MIC [3, 12]: 0.5 µg/mL | MIC [3, 13]: 1 µg/mL | MIC [4, 14]: 1 µg/mL | MIC [4, 15]: 2 µg/mL

O=C(O)c1cn(C2CC2)c2cc(N3CCNCC3)c(F)cc2c1=O [Ciprofloxacin]
MIC ([3]; S. aureus 0100 (ATCC 29213), FIC control): 0.50 µg/mL and 0.25 µg/mL | MIC [3, 16]: 0.25 to 0.5 µg/mL | MIC ([4]; E. faecalis 0101 (ATCC 29212), FIC control): 1 µg/mL and 0.5 µg/mL | MIC [4, 17]: 0.5 to 1 µg/mL

O=C(O)[C@H]1/C(=C/CO)O[C@@H]2CC(=O)N21 [Clavulanate]
MIC [3, 16]: > 16 µg/mL

NC[C@H]1O[C@H](O[C@H]2[C@H](O)[C@@H](O[C@H]3O[C@H](CO)[C@@H](O)[C@H](N)[C@H]3O)[C@H](N)C[C@@H]2N)[C@H](N)C[C@@H]1O [Tobramycin]
MBC [1, 18]: 0.5 µg/mL (≈ 1.07 µM) | MIC [1, 18]: 0.125 µg/mL (≈ 0.267 µM) | MBC ([1]; MRSA, HA-MRSA isolate R3804): 1 µg/mL (≈ 2.14 µM) | MIC ([1]; MRSA, HA-MRSA isolate R3804): 0.5 µg/mL (≈ 1.07 µM) | MBC [1, 19]: 0.5 µg/mL (≈ 1.07 µM) | MIC [1, 19]: 0.5 µg/mL (≈ 1.07 µM) | MBC ([1]; MRSA, HA-MRSA isolate R4039): 1 µg/mL (≈ 2.14 µM) | MIC ([1]; MRSA, HA-MRSA isolate R4039): 1 µg/mL (≈ 2.14 µM)
